The source of these data is patent publication US20130177610A1, “NANO-METALLIC ALLOY DELIVERY SYSTEM FOR TREATMENT OF INFECTED CELLS AND LEGIONS” (UNIVERSITY OF NORTH CAROLINA AT GREENSBORO, priority 2008, published 2013).

In the assay the test system is S. Aureus in osteoblast cells. As to the kind of experiment: Confocal microscopy live/dead staining (SYTO 9 / propidium iodide) of infected osteoblasts. The class given is cell-based, Staphylococcus aureus. The following applies: gentamycine alone, FIG. 6C. How it is done: Confocal microscopy provided the evidence for intracellular bacteria killing. Osteoblast cells were cultured on 18 mm cover slips in a six well plate. Cells were treated with nanoparticles 1 ug/mL. The stain used was from invitrogen (L-7002) with two types of Dyes, SYTO 9 dye, 3,34 mM (Component A), 300 μL solution in DMSO and Propidium iodide PI, 20 mM (Component B), 300 μL solution in DMSO. The plates were incubated in the dark for 15 minutes after which the coverslips with growing co-cultured cells were gently removed and were placed on a glass slide containing 50 μL of 10%A glycerol with cells lying between the cover slip and the glass slide. The slide was observed under a confocal microscope using bandpass filters for red and green color. Images were obtained at different working distances and were superimposed by an Olympus CCD camera software to get images with dual color. […] Gentamycine is an antibiotic that is not capable of penetrating the bone cells membrane.

gentamycine: the “dead bacteria (red) in infected osteoblast cells, confocal image” value was “no significant numbers of dead bacteria”.
